Measurements: patent publication US11613525B2 (CTXT PTY LIMITED, priority 2018, dated 2023)
Where two headings read alike, the source gives them in different places.

What was measured:
huSTING (HAQ) = huSTING (HAQ) (Homo sapiens (Human), UniProt Q86WV6, G230A/H232R/R293Q/R71H); test: THP-1 reporter cell line assay, THP-1 STING Lucia ISG cells; format: cell-based
human STING (HAQ) [1] = biological target: T1, human STING (HAQ) (Homo sapiens, UniProt Q86WV6, G230A/H232R/R293Q); test: biochemical; format: binding; conditions: for ΔTm at 100 µM: read-out: DSF huSTING (HAQ) ΔTm (° C.)
Procedure: (§1) DSF monitors thermal unfolding of protein in the presence of a fluorescent dye and is typically performed using a real-time PCR instrument. The temperature at which a protein unfolds is measured by an increase in the fluorescence of a dye with affinity for hydrophobic parts of the protein that are gradually exposed during unfolding. The fluorescence of the dye is quenched in aqueous environments, but when the dye associates with hydrophobic sites on the unfolded protein, its fluorescence increases. The fluorescence intensity is plotted as a function of the temperature, generating a sigmoidal curve that can be described by a two-state transition. The inflection point of the transition curve (Tm) is calculated using simple equations such as that of Boltzman.
(§2) Sealed plates were then placed into a Bio-Rad CFX96/C1000 thermocycler and FRET scanning mode (λ^excitation of 490 nm and reads at λ^emission of 570 nm) was used to measure fluorescence intensity. […] The melting point (Tm) obtained for STING protein alone was subtracted from Tm obtained for protein incubated with ligand to generate ΔTm values listed in the table below.
(§3) These additional compounds were tested as described above, however the protein concentration was 2 μM.

huSTING (WT) [2] = biological target: T2, huSTING (WT) (Homo sapiens (Human), UniProt Q86WV6, H232R); test: THP-1 reporter cell line assay, THP-1-Dual KI-hSTING-R232 cells; format: cell-based
Target sequence in this assay (Q86WV6 whole entry H232R): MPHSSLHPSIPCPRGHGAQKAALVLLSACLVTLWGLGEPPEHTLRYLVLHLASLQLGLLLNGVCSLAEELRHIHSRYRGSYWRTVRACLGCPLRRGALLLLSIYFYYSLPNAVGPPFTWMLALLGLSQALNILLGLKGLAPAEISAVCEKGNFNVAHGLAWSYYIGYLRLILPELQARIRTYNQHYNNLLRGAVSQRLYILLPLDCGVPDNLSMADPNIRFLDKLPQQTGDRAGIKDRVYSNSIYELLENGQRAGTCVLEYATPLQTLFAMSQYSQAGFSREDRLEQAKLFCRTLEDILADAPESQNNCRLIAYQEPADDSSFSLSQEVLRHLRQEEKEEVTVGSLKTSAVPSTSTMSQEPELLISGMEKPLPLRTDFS

human STING (HAQ) [3] = biological target: T1, human STING (HAQ); conditions: read-out: SPR (HAQ) KD; 25° C.
huSTING (WT) [4] = biological target: T2, huSTING (WT); test: Differential scanning fluorimetry (DSF), huSTING (WT); format: binding; conditions: for ΔTm at 100 µM: read-out: DSF huSTING (WT) ΔTm (° C.)
Procedure: as §1, §2, §3
Target sequence in this assay (Q86WV6 other isoform, or with tags, fused parts or gaps, stated change not applied): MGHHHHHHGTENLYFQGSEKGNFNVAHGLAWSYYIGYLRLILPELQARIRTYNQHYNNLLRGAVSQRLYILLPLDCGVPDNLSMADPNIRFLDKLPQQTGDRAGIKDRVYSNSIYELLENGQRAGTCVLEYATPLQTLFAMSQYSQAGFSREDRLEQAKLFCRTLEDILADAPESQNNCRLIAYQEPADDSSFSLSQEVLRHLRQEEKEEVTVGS

[5] = THP-1 STING Lucia ISG cells, 24 h, top concentration 50 μM, read-out: Cellular EC50 huSTING (HAQ)
[6] = 1 μM protein, compound at 100 μM
[7] = read-out: Cellular EC50 huSTING (WT)
[8] = THP-1 STING Lucia ISG cells, modified method, top concentration 40 μM, pin tool, EnVision, read-out: Cellular EC50 huSTING (HAQ)
[9] = compound 100 μM, protein concentration 2 μM

huSTING (HAQ), sequence (Q86WV6 whole entry R71H/G230A/H232R/R293Q): as the sequence (Q86WV6 whole entry H232R) above, with R71H, G230A, R293Q counted along it
T1 sequence (Q86WV6 whole entry G230A/H232R/R293Q, looked up): as the sequence (Q86WV6 whole entry H232R) above, with G230A, R293Q counted along it

Compound | EC50 (huSTING (HAQ); [5]) [µM] | EC50 (huSTING (WT) [2]; [7]) [µM] | ΔTm at 100 µM (human STING (HAQ) [1]) [°C] | ΔTm at 100 µM (huSTING (WT) [4]; [6]) [°C] | further results
CCOC(=O)c1sc2cccc(F)c2c1CCc1ccc(C(N)=O)cc1 [Example 87, Ethyl 3-(4-carbamoylphenethyl)-4-fluorobenzo[b]thiophene-2-carboxylate] | > 50 | > 50 | – | – | DSF huSTING (HAQ) ΔTm (° C.) (human STING (HAQ) [1]; [6]): 0.54 °C; Kd (human STING (HAQ) [3]): 3000 µM
CCOP(=O)(COC(=O)c1sc2cccc(Cl)c2c1COc1c(F)cc(C(N)=O)cc1F)OCC [Example 143, (Diethoxyphosphoryl)methyl 3-((4-carbamoyl-2,6-difluorophenoxy)methyl)-4-chlorobenzo[b]thiophene-2-carboxylate] | – | – | – | – | EC50 (huSTING (HAQ)): 0.018 µM; DSF huSTING (HAQ) ΔTm (° C.) (human STING (HAQ) [1]): −2.10 °C; DSF huSTING (WT) ΔTm (° C.) (huSTING (WT) [4]): −1.93 °C; EC50 (huSTING (WT) [2]): 0.381 µM
Cc1cccc2sc(C(=O)O)c(COc3ccc(C(N)=O)cc3)c12 [Example 78, 3-((4-Carbamoylphenoxy)methyl)-4-methylbenzo[b]thiophene-2-carboxylic acid] | > 50 | > 50 | 16 | 6.62 | –
NC(=O)c1ccc(NCc2c(C(=O)O)sc3cccc(Cl)c23)cc1 [Example 76, 3-(((4-Carbamoylphenyl)amino)methyl)-4-chlorobenzo[b]thiophene-2-carboxylic acid] | 2.68 | 0.217 | 2.43 | -2.72 | –
NC(=O)c1cc(F)c(OCc2c(C(=O)O)sc3cccc(Cl)c23)c(CO)c1 [Example 111, 3-((4-Carbamoyl-2-fluoro-6-(hydroxymethyl)phenoxy)methyl)-4-chlorobenzo[b]thiophene-2-carboxylic acid] | – | 17.2 | – | – | EC50 (huSTING (HAQ); [8]): 16.2 µM; DSF huSTING (WT) ΔTm (° C.) (huSTING (WT) [4]; [9]): 10.88 °C
CC(C)(C)C(=O)OCOC(=O)c1sc2cccc(Cl)c2c1COc1ccc(C(N)=O)cc1 [Example 74, (Pivaloyloxy)methyl 3-((4-carbamoylphenoxy)methyl)-4-chlorobenzo[b]thiophene-2-carboxylate] | 1.05 | 2.47 | – | -4.22 | –
CN(C)C(=O)COC(=O)c1sc2cccc(Cl)c2c1COc1c(F)cc(C(N)=O)cc1F [Example 127, 2-(Dimethylamino)-2-oxoethyl 3-((4-carbamoyl-2,6-difluorophenoxy)methyl)-4-chlorobenzo[b]thiophene-2-carboxylate] | – | 0.229 | – | – | EC50 (huSTING (HAQ); [8]): 0.026 µM; DSF huSTING (WT) ΔTm (° C.) (huSTING (WT) [4]; [9]): −2.44 °C
NC(=O)CNC(=O)c1sc2cccc(Cl)c2c1COc1c(F)cc(C(N)=O)cc1F [Example 148, N-(2-Amino-2-oxoethyl)-3-((4-carbamoyl-2,6-difluorophenoxy)methyl)-4-chlorobenzo[b]thiophene-2-carboxamide] | – | > 40 | – | – | EC50 (huSTING (HAQ); [8]): 4.07 µM; DSF huSTING (WT) ΔTm (° C.) (huSTING (WT) [4]; [9]): −0.37 °C
NC(=O)c1ccc(OCc2c(C(=O)O)sc3c(F)ccc(F)c23)cc1 [Example 82, 3-((4-Carbamoylphenoxy)methyl)-4,7-difluorobenzo[b]thiophene-2-carboxylic acid] | > 50 | > 50 | 9.29 | 3.15 | –
NC(=O)c1ccc(OCc2c(C(=O)O)sc3cccc(Cl)c23)c(F)c1F [Example 67, 3-((4-Carbamoyl-2,3-difluorophenoxy)methyl)-4-chlorobenzo[b]thiophene-2-carboxylic acid] | > 50 | > 50 | 11.1 | 3.04 | –
CCOC(=O)c1sc2cc(Cl)ccc2c1COc1ccc(C(N)=O)cc1 [Example 9, Ethyl 3-((4-carbamoylphenoxy)methyl)-6-chlorobenzo[b]thiophene-2-carboxylate] | > 50 | > 50 | 0.71 | 0.51 | –
CCOC(=O)c1sc2ccccc2c1COc1ccc(C(N)=O)cc1 [Example 5, Ethyl 3-((4-carbamoylphenoxy)methyl)benzo[b]thiophene-2-carboxylate] | 8.22 | > 50 | -0.48 | 0.07 | –
NC(=O)c1ccc(OCc2c(C(=O)NCCc3ccccc3)sc3cccc(Br)c23)cc1 [Example 167, 4-Bromo-3-((4-carbamoylphenoxy)methyl)-N-phenethylbenzo[b]thiophene-2-carboxamide] | – | 25.6 | – | – | EC50 (huSTING (HAQ); [8]): 23.2 µM; DSF huSTING (WT) ΔTm (° C.) (huSTING (WT) [4]; [9]): 2.51 °C
COCCOC(=O)c1sc2cccc(Cl)c2c1COc1c(F)cc(C(N)=O)cc1F [Example 158, 2-Methoxyethyl 3-((4-carbamoyl-2,6-difluorophenoxy)methyl)-4-chlorobenzo[b]thiophene-2-carboxylate] | – | – | – | – | EC50 (huSTING (HAQ)): 0.132 µM; DSF huSTING (HAQ) ΔTm (° C.) (human STING (HAQ) [1]): −1.58 °C; DSF huSTING (WT) ΔTm (° C.) (huSTING (WT) [4]): −1.90 °C; EC50 (huSTING (WT) [2]): 0.949 µM
CCOC(=O)c1sc2ccc(Cl)cc2c1COc1ccc(C(N)=O)cc1 [Example 13, Ethyl 3-((4-carbamoylphenoxy)methyl)-5-chlorobenzo[b]thiophene-2-carboxylate] | > 50 | > 50 | -0.15 | -0.59 | –
COC(=O)N(C)CCOC(=O)c1sc2cccc(Cl)c2c1COc1c(F)cc(C(N)=O)cc1F [Example 161, 2-((Methoxycarbonyl)(methyl)amino)ethyl 3-((4-carbamoyl-2,6-difluorophenoxy)methyl)-4-chlorobenzo[b]thiophene-2-carboxylate] | – | 0.669 | – | – | EC50 (huSTING (HAQ); [8]): 0.062 µM; DSF huSTING (WT) ΔTm (° C.) (huSTING (WT) [4]; [9]): −1.76 °C
COC(=O)NCCOC(=O)c1sc2cccc(Cl)c2c1COc1c(F)cc(C(N)=O)cc1F [Example 160, 2-((Methoxycarbonyl)amino)ethyl 3-((4-carbamoyl-2,6-difluorophenoxy)methyl)-4-chlorobenzo[b]thiophene-2-carboxylate] | – | 0.298 | – | – | EC50 (huSTING (HAQ); [8]): 0.035 µM; DSF huSTING (WT) ΔTm (° C.) (huSTING (WT) [4]; [9]): −1.05 °C
NC(=O)c1ccc(OCc2c(C(=O)O)sc3ccc(F)c(Cl)c23)cc1 [Example 84, 3-((4-Carbamoylphenoxy)methyl)-4-chloro-5-fluorobenzo[b]thiophene-2-carboxylic acid] | > 50 | > 50 | 6.48 | 0.18 | –
NC(=O)c1cc(F)c(OCc2c(C(=O)O)sc3c(F)ccc(F)c23)c(F)c1 [Example 80, 3-((4-Carbamoyl-2,6-difluorophenoxy)methyl)-4,7-difluorobenzo[b]thiophene-2-carboxylic acid] | 38.6 | > 50 | 14.9 | 6.69 | –
NC(=O)c1cc(F)c(OCc2c(C(=O)O)sc3ccc(F)c(Cl)c23)c(F)c1 [Example 86, 3-((4-Carbamoyl-2,6-difluorophenoxy)methyl)-4-chloro-5-fluorobenzo[b]thiophene-2-carboxylic acid] | > 50 | > 50 | 10.1 | 3.33 | –
NC(=O)c1cc(F)c(OCc2c(C(=O)O)sc3cccc(Cl)c23)c(F)c1 [Example 69, 3-((4-Carbamoyl-2,6-difluorophenoxy)methyl)-4-chlorobenzo[b]thiophene-2-carboxylic acid] | – | – | – | – | DSF huSTING (HAQ) ΔTm (° C.) (human STING (HAQ) [1]; [6]): 22.08 °C; ΔTm at 100 µM (huSTING (WT) [4]): 9.49 °C
CCOC(=O)c1sc2c(Cl)cccc2c1COc1ccc(C(N)=O)cc1 [Example 11, Ethyl 3-((4-carbamoylphenoxy)methyl)-7-chlorobenzo[b]thiophene-2-carboxylate] | 16.2 | 25.6 | 0.29 | 0.13 | –
